Laboratory results as given in patent publication US20210213010A1, “TLR7/8 AGONISTS AND LIPOSOME COMPOSITIONS” (Torque Therapeutics, Inc., priority 2018, published 2021).
“Also recorded” adds a separate entry of the source.

Tests used:
RAW-Blue cells = assay: NF-κB induction in RAW-Blue reporter cells (RAW 264.7 macrophages, SEAP); type: cell-based; conditions: for EC50: RAW-Blue, sigmoidal 4PL fitting, 24 h
Description: This example describes the general procedure used to assess the compounds' potency to induce NF-κB expression in RAW 264.7 macrophages cells that stably express secreted embryonic alkaline phosphatase (SEAP) upon induction of NF-κB. RAW-Blue™ reporter cells are commonly used for quantifying TLR7/8 agonist potencies in reporter cell assays. Conversely, we used RAW-Blue™ cells to evaluate the potencies of the synthesized derivatives, as previously reported^1. ^1 Ryu et al, J. Am. Chem. Soc. (2014), 136, 10823-10825
RAW 264.7 assays were carried out using RAW-Blue™ cells and QUANTI-Blue™ detection solution (Invivogen, Toulouse, France, at. #raw-sp and rep-qbs respectively). The assays carried out according to the protocol from Invivogen. RAW 264.7 macrophages were cultured in DMEM high glucose (4.5 g/L) supplemented with 10% (v/v) FBS, 1% (v/v) P/S, and Normocin™ (100 μg/ml). On the day of the study, the cells were seeded in a 96-well plate (ThermoFisher Scientific, Roskilde, Denmark) with 20 μL TLR7/8 agonist solutions per well at varying concentrations by adding 180 μL cell suspension, made by suspending cells to 0.55×10^6 cells per mL in the prepared cell medium added Zeocin™ (200 μg/ml), leading to a final concentration of 100×10^3 cells per well in triplicates. Cells were incubated with the TLR7/8 agonists, diluted from 10 mM DMSO stocks in PBS, at 37° C. with 5% CO2 for 24 h for SEAP production. 50 μL SEAP containing cell supernatant from each well was added 150 μL QUANTI-Blue™ detection solution and was incubated at 37° C. for 3-6 h. The resulting response was quantified spectrophotometrically at 640 nm and was normalized to the signal from a blank sample (DMSO dilution) run in parallel.
Half maximal effective concentration (EC50) values were determined from sigmoidal 4PL fittings from the resulting dose-response curves in GraphPad Prism.

[1] = Remote loading efficiency of small molecules into liposomes (PD-10 size exclusion, HPLC); type: physicochemical
Experimental: A solution of the small molecule (modified TLR agonist) was lyophilized in a vial equipped with a magnetic stir bar over night to form a fluffy white powder. This powder was added either formulation F1 or F2 to the wanted drug/lipid ratio. The resulting mixture was stirred at 55° C. or 41° C. for formulation F1 and F2 respectively for 3h, then allowed to cool to rt before the solutions were refrigerated and stored at 4° C.
Remote loading efficiency was determined at 1 h and 3 h by taking out 100 μL of the mixture and applying this and 900 μL buffer (25 mM HEPES, 10 vol % sucrose buffer, pH 7.4) to a PD-10 column size exclusion column. Following, 10×1 mL fractions were collected, and the small molecule compound concentrations in the loading mixture and in the liposome containing fractions were determined on analytical HPLC. Loading efficiency was calculated as percentage of molecules found in liposome containing fractions out of the applied amount. The general procedure for the small molecule remote loading is visualized in FIG. 3. The general concept of remote loading imidazoquinolines in liposomes that are dialyzed against HEPES is visualized in FIG. 4.

whole human blood [2] = assay: IL-6 cytokine expression in stimulated whole human blood (ELISA); type: cell-based
Experimental: (§1) This example describes the general procedure used to assess the level of cytokine IL-6 and IL-12p40 expressions upon stimuli of whole human blood with small molecules or small molecules in liposomal formulations F1 and F2. 10 mM DMSO solutions of the small molecules were diluted in RPMI media (RPMI-1640, Sigma Aldrich) with 1% penicillin/streptomycin (p/s). […], of each dilution was transferred to Nunc™ 96-Well Polystyrene Conical Bottom MicroWell™ Plates in duplicates. Blood was drawn from two human donors, diluted in RPMI with 1% p/s and added to each well to reach final concentrations of 10 μM, 1 μM, and 0.1 μM of the small molecules. The plates were incubated at 37° C. in a cell incubator for 24h. The plates were then spun down in a plate centrifuge with 3200 revolutions per minute (rpm) for 10 min before 50 uL of the supernatant was transferred to new 96-well plates. The supernatant samples were subsequently stored at −80° C. until the day of cytokine measurements.
(§2) The level of cytokine expression was measured using either an IL-6 ELISA Kit (RnDSystems, cat #DY206) for IL-6, or an IL-12p40 ELISA Kit (RnDSystems, cat #DY1240) according to the manufacturer's protocols. This general procedure was used to generate the examples 24-33.

whole human blood [3] = assay: IL-12p40 cytokine expression in stimulated whole human blood (ELISA); type: cell-based
Experimental: as §1, §2

[4] = formulation F1, HEPES, drug/lipid ratio 0.10, 1 h
[5] = formulation F1, HEPES, drug/lipid ratio 0.10, 3 h
[6] = formulation F2, HEPES, drug/lipid ratio 0.10, 1 h
[7] = formulation F2, HEPES, drug/lipid ratio 0.10, 3 h
[8] = remote loaded in formulation F1, HEPES, drug/lipid ratio 0.1
[9] = remote loaded in formulation F2, HEPES, drug/lipid ratio 0.1
[10] = free small molecule, 10, 1, 0.1 μM, 24 h, two donors

SMILES | EC50 (RAW-Blue cells) | Remote loading efficiency 1 h (%) [1, 4] | Remote loading efficiency 3 h (%) [1, 5] | Remote loading efficiency 1 h (%) [1, 6] | Remote loading efficiency 3 h (%) [1, 7] | Expression of IL-6 upon stimulation of whole human blood (whole human blood [2]; [8]) | Expression of IL-6 upon stimulation of whole human blood (whole human blood [2]; [9]) | Expression of IL-12p40 upon stimulation of whole human blood (whole human blood [3]; [8]) | Expression of IL-12p40 upon stimulation of whole human blood (whole human blood [3]; [9]) | Expression of IL-6 upon stimulation of whole human blood (whole human blood [2]; [10]) | Expression of IL-12p40 upon stimulation of whole human blood (whole human blood [3]; [10]) | also measured
CCCCc1nc2c(N)nc3ccccc3c2n1Cc1ccc(CNC(=O)CC)cc1 [MK148, N-(4-((4-amino-2-butyl-1H-imidazo[4,5-c]quinolin-1-yl)methyl)benzyl)propionamide] | 50 nM |  |  |  |  |  |  |  |  |  |  | Potency in the RAW-Blue cell assay (RAW-Blue cells; compared with R848): greater potencies than R848
CCOCc1nc2c(N)nc3ccccc3c2n1CCNC(=O)CN [MK087, 2-amino-N-(2-(4-amino-2-(ethoxymethyl)-1H-imidazo[4,5-c]quinolin-1-yl)ethyl)acetamide] |  | 72% | 73% | 52% | 60% | capable of inducing expression of IL-6 at 10 μM | capable of inducing expression of IL-6 at 10 μM; also recorded: not capable of inducing expression of IL-6 in donor 1 | none of the small molecules Gardiquimod, MK087, MK088, and MK089 were capable of inducing expression of IL-12p40 | not capable of inducing expression of IL-12p40 |  |  | 
CCOCc1nc2c(N)nc3ccccc3c2n1CCNC(=O)[C@H](C)N [MK088, (S)-2-amino-N-(2-(4-amino-2-(ethoxymethyl)-1H-imidazo[4,5-c]quinolin-1-yl)ethyl)propanamide] |  | 110% | 115% | 95% | 95% | capable of inducing expression of IL-6 at 10 μM | capable of inducing expression of IL-6 at 10 μM; also recorded: not capable of inducing expression of IL-6 in donor 1 | none of the small molecules Gardiquimod, MK087, MK088, and MK089 were capable of inducing expression of IL-12p40 | capable of inducing expression of IL-12p40 in one donor at 10 μM | induced expression of IL-6 at 10 μM in donor 2 | induced expression of IL-12p40 at 10 μM in donor 2; also recorded: the most potent inducer of IL-12p40 | 
CCOCc1nc2c(N)nc3ccccc3c2n1CCNC(=O)[C@@H](N)CC(C)C [MK091, (S)-2-amino-N-(2-(4-amino-2-(ethoxymethyl)-1H-imidazo[4,5-c]quinolin-1-yl)ethyl)-4-methylpentanamide] |  |  |  |  |  |  |  |  |  | induced expression of IL-6 at 10 μM in donor 2 | induced expression of IL-12p40 at 10 μM in donor 2 | 
CCOCc1nc2c(N)nc3ccccc3c2n1CCNC(=O)C(C)(C)N [MK090, 2-amino-N-(2-(4-amino-2-(ethoxymethyl)-1H-imidazo[4,5-c]quinolin-1-yl)ethyl)-2-methylpropanamide] |  |  |  |  |  |  |  |  |  | induced expression of IL-6 at 10 μM in donor 2; also recorded: able to induce expression of IL-6 in both donors; also recorded: the most potent inducer of IL-6 | induced expression of IL-12p40 at 10 μM in donor 2 | 
CCOCc1nc2c(N)nc3ccccc3c2n1CCNC(=O)[C@@H](N)C(C)C [MK089, (S)-2-amino-N-(2-(4-amino-2-(ethoxymethyl)-1H-imidazo[4,5-c]quinolin-1-yl)ethyl)-3-methylbutanamide] |  | 122% | 128% | 100% | 104% | No induction of IL-6 expression | capable of inducing expression of IL-6 at 10 μM; also recorded: capable of inducing expression of IL-6 in both donors | none of the small molecules Gardiquimod, MK087, MK088, and MK089 were capable of inducing expression of IL-12p40 | capable of inducing expression of IL-12p40 in one donor at 10 μM | induced expression of IL-6 at 10 μM in donor 2 |  | 
CCOCc1nc2c(N)nc3ccccc3c2n1CCNC(=O)[C@@H](N)CCSC [MK093, (S)-2-amino-N-(2-(4-amino-2-(ethoxymethyl)-1H-imidazo[4,5-c]quinolin-1-yl)ethyl)-4-(methylthio)butanamide] |  |  |  |  |  |  |  |  |  | induced expression of IL-6 at 10 μM in donor 2 | induced expression of IL-12p40 at 10 μM in donor 2 | 
CCCCc1nc2c(N)nc3ccccc3c2n1Cc1ccc(CNC(=O)[C@@H](N)Cc2ccc(O)cc2)cc1 [MK141, (S)-2-amino-N-(4-((4-amino-2-butyl-1H-imidazo[4,5-c]quinolin-1-yl)methyl)benzyl)-3-(4-hydroxyphenyl)propanamide] | 130 nM |  |  |  |  |  |  |  |  |  |  | Remote loading efficiency 1 h (%) ([1]; formulation F3, drug/lipid ratio 0.10, 1 h, mean (SD), n = 2): 83.8 (3.0) %; Remote loading efficiency 3 h (%) ([1]; formulation F3, drug/lipid ratio 0.10, 3 h, mean (SD), n = 2): 81.2 (2.1) %
CCCCc1nc2c(N)nc3ccccc3c2n1Cc1ccc(CNC(C)=O)cc1 [MK132, N-(4-((4-amino-2-butyl-1H-imidazo[4,5-c]quinolin-1-yl)methyl)benzyl)acetamide] | 120 nM |  |  |  |  |  |  |  |  |  |  | 
